In test [1] the target is human 5-HT2A serotonin receptor (Homo sapiens (Human), UniProt P28223). Briefly: Radioligand binding ([3H]-ketanserin) to cloned human 5-HT2A receptor expressed in HEK-293 EBNA cells. Particulars: membranes of transfected HEK-293 EBNA cells, 1.1 nM [3H]-ketanserin, 1 h at RT. As to the method: The ability of the compounds to bind to the 5-HT2A, D3 and D2 receptors was determined using radioligand binding to cloned receptors selectively expressed in HEK-293 EBNA cells.
(§1) HEK-293 EBNA cells were transiently transfected with expression plasmids encoding for the human D2 or D3 dopamine- or for the human 5-HT2A serotonin receptor, respectively. The cells were harvested 48 h post-transfection, washed three times with cold PBS and stored at −80° C. prior to use. The pellet was suspended in cold 50 mM Tris-HCl buffer containing 10 mM EDTA (pH 7.4) and homogenized with a Polytron (Kinematica AG, Basel, Switzerland) for 20-30 sec at 12,000 rpm. After centrifugation at 48,000×g for 30 min at 4° C., the pellet was resuspended in cold 10 mM Tris-HCl buffer containing 0.1 mM EDTA (pH 7.4), homogenized, and centrifuged as above. This pellet was further resuspended in a smaller volume of ice cold 10 mM Tris-HCl buffer containing 0.1 mM EDTA (pH 7.4) and homogenized with a Polytron for 20-30 sec at 12,000 rpm. The protein content of this homogenate was determined with the Bio-Rad (Bradford) Protein Assay (Biorad Laboratories GmbH, München, Germany) according to the instructions of the manufacturer using gamma globulin as the standard. This homogenate was stored at −80° C. in aliquots and thawed immediately prior to use.
Aliquots of membrane preparations were thawed at RT, resuspended in assay buffer (D2, D3: 50 mM Tris-HCl, 120 mM NaCl, 5 mM MgCl2, 1 mM EDTA, 5 mM KCl, 1.5 mM CaCl2, pH=7.4; 5-HT2A: 50 mM Tris-HCl, 10 mM MgCl2, 1 mM EGTA, pH=7.4), homogenized with a Polytron for 20-30 sec at 12,000 rpm and adjusted to a final concentration of approximately 7.5 μg protein/well (D2, D3) and 15 μg protein/well (5-HT2A), respectively.
(§2) The binding affinity (Ki) of the compounds was determined using radioligand binding. Membranes were incubated in a total volume of 200 μl with a fixed concentration of radioligand (final concentration approximately 0.7 nM [^3H]-spiperone for D2, 0.5 nM [^3H]-spiperone for D3, and 1.1 nM [^3H]-ketanserin for 5-HT2A) and ten concentrations of test compound in ranging between 10 μM-0.1 nM for 1 h at RT. At the end of the incubation, the reaction mixtures were filtered on to unifilter 96-well white microplates with bonded GF/C filters (Packard BioScience, Zürich, Switzerland; preincubated for 1 h in 0.1% polyethylenimine (PEI) in assay buffer) with a Filtermate 196 harvester (Packard BioScience) and washed 3 times with cold assay buffer. The nonspecific binding was determined with equally composed reaction mixtures in the presence of 10 μM unlabelled spiperone. Per well 45 μl of Microscint 40 (Perkin Elmer, Schwerzenbach, Switzerland) was added, plates for sealed, shaken for 20 min and counted for 3 min on a Topcount Microplate Scintillation Counter (Canberra Packard SA, Zürich, Switzerland) with quenching correction.
(§3) The CPM value for each duplicate of a concentration of competing compound was averaged (y1), then the % specific binding was calculated according to the equation (((y1−non-specific)/(total binding−non-specific))×100). Graphs were plotted with the % specific binding using XLfit, a curve fitting program that iteratively plots the data using Levenburg Marquardt algorithm. The single site competition analysis equation used was y=A+((B−A)/(1+((x/C)^D))), where y is the % specific binding, A is the minimum y, B is the maximum y, C is the IC50, x is the log10 of the concentration of the competing compound and D is the slope of the curve (the Hill Coefficient). From these curves the IC50 (inhibition concentration at which 50% specific binding of the radioligand was displaced) and Hill coefficient were determined. The affinity constant (Ki) was calculated using the Cheng-Prusoff equation Ki=(IC50/1+([L]/Kd), where [L] is the concentration of radioligand and Kd is the dissociation constant of the radioligand at the receptor as determined by the saturation isotherm.

Test [2] has as its target human D3 dopamine receptor (Homo sapiens (Human), UniProt P35462). Briefly: Radioligand binding ([3H]-spiperone) to cloned human D3 receptor expressed in HEK-293 EBNA cells. Particulars: membranes of transfected HEK-293 EBNA cells, 0.5 nM [3H]-spiperone, 1 h at RT. As to the method: as §1, with “The pellet was suspended in cold 50 mM Tris-HCl buffer containing 10 mM EDTA (pH 7.4) and homogenized with a Polytron (Kinematica AG, Basel, Switzerland) for 20-30 sec at 12,000 rpm.” left out, “This pellet was further resuspended in a smaller volume of ice cold 10 mM Tris-HCl buffer containing 0.1 mM EDTA (pH 7.4) and homogenized with a Polytron for 20-30 sec at 12,000 rpm.” left out
as §2, §3

The text below walks through data of patent US8829029B2, “Dual modulators of 5HT2A and D3 receptors” (Hoffmann-La Roche Inc., priority 2008, dated 2014).

Each structure is given as a SMILES string.

Sequence of human D3 dopamine receptor (P35462 whole entry): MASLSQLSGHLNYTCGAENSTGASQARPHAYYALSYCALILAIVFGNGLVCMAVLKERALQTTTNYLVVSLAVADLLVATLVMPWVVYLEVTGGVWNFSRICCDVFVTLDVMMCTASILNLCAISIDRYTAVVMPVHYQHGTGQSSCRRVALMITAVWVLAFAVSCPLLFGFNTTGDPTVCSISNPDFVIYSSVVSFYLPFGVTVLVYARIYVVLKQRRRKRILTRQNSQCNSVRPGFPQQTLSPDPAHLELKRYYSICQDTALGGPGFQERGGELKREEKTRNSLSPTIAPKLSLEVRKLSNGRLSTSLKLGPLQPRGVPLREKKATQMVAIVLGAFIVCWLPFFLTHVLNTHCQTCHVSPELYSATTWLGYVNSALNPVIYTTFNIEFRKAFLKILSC

Broadly, the Ki is a measure of affinity in units of concentration, obtained from inhibition or displacement. For `CC(=O)N[C@H]1CC[C@H](CCN2CCC(c3noc4cc(F)ccc34)CC2)CC1` [Example 1, 4N-trans(4-{2-[4-(6-Fluoro-benzo[d]isoxazol-3-yl)-piperidin-1-yl]-ethyl}-cyclohexyl)-acetamide], the figures for the Ki in test [1] and in test [2] were 2.22 nM and 4.96 nM, respectively.

Consider `O=C(N[C@H]1CC[C@H](CCN2CCC(c3noc4cc(F)ccc34)CC2)CC1)C1CCOCC1` [Example 2, Tetrahydro-pyran-4-carboxylic acid trans(4-{2-[4-(6-fluoro-benzo[d]isoxazol-3-yl)-piperidin-1-yl]-ethyl}-cyclohexyl)-amide], for which the inhibition constant (Ki) came to 1.74 nM in test [1] and 9.74 nM in test [2].

On to `COCCC(=O)N[C@H]1CC[C@H](CCN2CCC(c3noc4cc(F)ccc34)CC2)CC1` [Example 3, N-trans (4-{2-[4-(6-Fluoro-benzo[d]isoxazol-3-yl)-piperidin-1-yl]-ethyl}-cyclohexyl)-3-methoxy-propionamide], for which the inhibitory constant (Ki) is 1.81 nM in test [1] and 4.75 nM in test [2].

Regarding `O=C(N[C@H]1CC[C@H](CCN2CCC(c3noc4cc(F)ccc34)CC2)CC1)c1ccc(N2CCOCC2)cc1` [Example 4, N-trans-(4-{2-[4-(6-Fluoro-benzo[d]isoxazol-3-yl)-piperidin-1-yl]-ethyl}-cyclohexyl)-4-morpholin-4-yl-benzamide], the Ki in test [1] came out at 9.52 nM.

Take `O=C(N[C@H]1CC[C@H](CCN2CCC(c3noc4cc(F)ccc34)CC2)CC1)c1ccc(N2CCOCC2)nc1` [Example 4A, N-Trans (4-{2-[4-(6-Fluoro-benzo[d]isoxazol-3-yl)-piperidin-1-yl]-ethyl}-cyclohexyl)-6-morpholin-4-yl-nicotinamide]: the figures for the Ki in test [1] and in test [2] were 2.7 nM and 7.95 nM, respectively.

In the case of `O=C(N[C@H]1CC[C@H](CCN2CCC(c3noc4cc(F)ccc34)CC2)CC1)c1cnc(N2CCOCC2)cn1` [Example 4B, 5-Morpholin-4-yl-pyrazine-2-carboxylic acid trans (4-{2-[4-(6-fluoro-benzo[d]isoxazol-3-yl)-piperidin-1-yl]-ethyl}-cyclohexyl)-amide], the inhibitory constant (Ki) was found to be 3.81 nM in test [1] and 19.4 nM in test [2].

As for `O=C(N[C@H]1CC[C@H](CCN2CCC(c3noc4cc(F)ccc34)CC2)CC1)c1ccc(N2CCOCC2)nn1` [Example 4C, 6-Morpholin-4-yl-pyridazine-3-carboxylic acid-trans (4-{2-[4-(6-fluoro-benzo[d]isoxazol-3-yl)-piperidin-1-yl]-ethyl}-cyclohexyl)-amide], the inhibition constant Ki in test [1] turned out to be 3.18 nM; in test [2], 25.3 nM.

Turning to `O=C(N[C@H]1CC[C@H](CCN2CCC(c3noc4cc(F)ccc34)CC2)CC1)c1cnc(N2CCOCC2)nc1` [Example 4D, 2-Morpholin-4-yl-pyrimidine-5-carboxylic acid trans (4-{2-[4-(6-fluoro-benzo[d]isoxazol-3-yl)-piperidin-1-yl]-ethyl}-cyclohexyl)-amide], the Ki in test [1] amounted to 2.45 nM; in test [2] it was 15.3 nM.

For the molecule `O=C(N[C@H]1CC[C@H](CCN2CCC(c3noc4cc(F)ccc34)CC2)CC1)c1ccc(N2CCOCC2)c(F)c1` [Example 5, 3-Fluoro-N-trans (4-{2-[4-(6-fluoro-benzo[d]isoxazol-3-yl)-piperidin-1-yl]-ethyl}-cyclohexyl)-4-morpholin-4-yl-benzamide], the Ki in test [1] came out at 17.5 nM; in test [2], 45.3 nM.

Consider `CN(C)c1ccc(C(=O)N[C@H]2CC[C@H](CCN3CCC(c4noc5cc(F)ccc45)CC3)CC2)cc1` [Example 6, 4-Dimethylamino-N-trans (4-{2-[4-(6-fluoro-benzo[d]isoxazol-3-yl)-piperidin-1-yl]-ethyl}-cyclohexyl)-benzamide], for which the results for the Ki in test [1] and in test [2] were 11.4 nM and 11.5 nM, respectively.

Consider `O=C(Cc1ccc2c(c1)OCO2)N[C@H]1CC[C@H](CCN2CCC(c3noc4cc(F)ccc34)CC2)CC1` [Example 7, 2-Benzo[1,3]dioxo1-5-yl-N-trans (4-{2-[4-(6-fluoro-benzo[d]isoxazol-3-yl)-piperidin-1-yl]-ethyl}-cyclohexyl)-acetamide], for which the Ki stood at 2.09 nM in test [1] and 4.02 nM in test [2].

Consider `COc1ccc(C(=O)N[C@H]2CC[C@H](CCN3CCC(c4noc5cc(F)ccc45)CC3)CC2)cc1` [Example 8, N-trans-(4-{2-[4-(6-Fluoro-benzo[d]isoxazol-3-yl)-piperidin-1-yl]-ethyl}-cyclohexyl)-4-methoxy-benzamide], for which the values for the Ki in test [1] and in test [2] were 3.65 nM and 4.53 nM, respectively.

For `CC(C)(C)Oc1ccc(C(=O)N[C@H]2CC[C@H](CCN3CCC(c4noc5cc(F)ccc45)CC3)CC2)cc1` [Example 9, 4-tert-Butoxy-N-trans (4-{2-[4-(6-fluoro-benzo[d]isoxazol-3-yl)-piperidin-1-yl]-ethyl}-cyclohexyl)-benzamide], the Ki in test [1] is 1.72 nM; in test [2], 3.42 nM.

As for `O=C(N[C@H]1CC[C@H](CCN2CCC(c3noc4cc(F)ccc34)CC2)CC1)c1ccnc(N2CCOCC2)c1` [Example 12, N-trans (4-{2-[4-(6-Fluoro-benzo[d]isoxazol-3-yl)-piperidin-1-yl]-ethyl}-cyclohexyl)-2-morpholin-4-yl-isonicotinamide], the Ki in test [1] stood at 2.46 nM.

On to `O=C(N[C@H]1CC[C@H](CCN2CCC(c3noc4ccc(F)cc34)CC2)CC1)c1ccc2c(c1)OCO2` [Example 30, Benzo[1,3]dioxole-5-carboxylic acid trans (4-{2-[4-(5-fluoro-benzo[d]isoxazol-3-yl)-piperidin-1-yl]-ethyl}-cyclohexyl)-amide], for which, in test [1], the inhibitory constant (Ki) amounted to 11.2 nM.

As for `O=C(CC1CCCCO1)N[C@H]1CC[C@H](CCN2CCC(c3noc4cc(Cl)ccc34)CC2)CC1` (stereo partly drawn) [Example 34, N-trans (4-{2-[4-(6-Chloro-benzo[d]isoxazol-3-yl)-piperidin-1-yl]-ethyl}-cyclohexyl)-2-(tetrahydro-pyran-2-yl)-acetamide], the Ki in test [1] was determined as 5.83 nM.

For the molecule `O=C(C[C@@H]1CCCCO1)N[C@H]1CC[C@H](CCN2CCC(c3noc4cc(Cl)ccc34)CC2)CC1` [Example 34A, N-trans (4-{2-[4-(6-Chloro-benzo[d]isoxazol-3-yl)-piperidin-1-yl]-ethyl}-cyclohexyl)-2-(R)-tetrahydro-pyran-2-yl-acetamide], the Ki in test [1] was 13.7 nM.

`O=C(C[C@H]1CCCCO1)N[C@H]1CC[C@H](CCN2CCC(c3noc4cc(Cl)ccc34)CC2)CC1` [Example 34B, N-trans (4-{2-[4-(6-Chloro-benzo[d]isoxazol-3-yl)-piperidin-1-yl]-ethyl}-cyclohexyl)-2-(S)-tetrahydro-pyran-2-yl-acetamide]: the Ki in test [1] was determined as 15.3 nM.
